Key:
C3bi = assay: Inhibition of binding of 12.1F9 to E-C3bi by peptides; design: species or system human
Source text: The antibody 12.1F9 maps to the region 1279-2011 of FHA. When the derived amino acid sequence of this region was compared to that of C3, a region of 11 amino acids with similar sequence was found between FHA residues 1408-1418 and C3 residues 1187-1197 (Table 14). […] However, the FHA-20-mer and the homologous C3-derived peptide blocked binding by up to 60%.

blood brain barrier = assay: Rabbit meningitis model: CSF protein and lactate (blood brain barrier permeability); type: in vivo
Experimental: (§1) The rabbit model was performed according to an established protocol. Specific pathogen free, New Zealand white rabbits (2 kg; Hare Marland, Nutley, N.J.) were anesthetized with valium (2.5 mg/kg, subcutaneously, Hoffman-LaRoche, Nutley, N.J.), ketamine (35 mg/kg, intramuscularly, Aveco, Fort Dodge, Iowa) and xylazine (5 mg/kg, intramuscularly, Miles Laboratories, Shawnee, Kans.) and a helmet of dental acrylic was affixed to the calvarium. Twenty four hours later, the rabbits were anesthetized with ethyl carbamate (1.75 g/kg; Aldrich Chemical Co., Milwaukee, Wis.) and pentobarbital (15 mg/kg; Abbott Laboratories, Abbott Park, Ill.) and placed in a stereotaxic frame. A spinal needle was introduced into the cisterna magna and 300 μl of CSF was withdrawn. The animals were challenged intracisternally with 10^8 heat killed, unencapsulated pneumococcus strain R6 introduced in 200 μl of saline (time 0). One hour later, animals were treated with peptides dissolved in 1 ml of saline by intravenous injection into the right marginal ear vein. The concentration of FHA was 0.1 μM and that of the FHA Ia, Factor X II, and scrambled FHA II peptides was 10 μM. For the acetyl-FHA II, acetyl/amide-FHA II, dimer of FHA II and trimer of FHA II peptides, the concentration was 10^-3 μM. The concentration of FHA II is given in the results section. Samples of CSF were withdrawn at hourly intervals after pneumococcal inoculation and leukocyte density was measured using a cell counter (Coulter Electronics Inc., Hialeah, Fla.). CSF samples were centrifuged at 10,000×g for 5 minutes and the supernatant was stored at -70° C. until assayed for protein concentration using the bicinchoninic acid method (BCA Kit, Pierce Chemical Co., Rockford, Ill.) and for lactate concentration (Lactate Detection Kit, Sigma, St. Louis, Mo.). Statistically significant differences between treatments were determined by a one way analysis of variance test.
Loss of barrier function of the cerebral capillary endothelium during inflammation is reflected by an influx of serum proteins into the CSF. […] To examine if the peptides were able to ameliorate these measures of cerebral injury, CSF protein and lactate concentrations were measured hourly in peptide-treated and control animals (Table 10).
Leukocyte migration into the CSF in bacterial meningitis is associated with loss of barrier function of the cerebral capillary endothelium, resulting in influx of serum proteins into the CSF. To determine whether FHA peptides were able to prevent this leukocyte-dependent injury, protein concentrations in the CSF were measured throughout the course of inflammation in peptide-treated and control animals.

neutrophils = assay: Transendothelial migration of neutrophils; type: cell-based, human; settings: native FHA 1 μM
Experimental: Transendothelial migration of neutrophils was studied based on a method described by Muller et al. (1992), J. Exp. Med. 176: 819-828. Briefly, human neutrophils suspended in ice-cold Hanks balanced salt solution (HBSS) containing Ca^++ and Mg^++ (Sigma) were fluoresceinated by adding 3.3 μl/ml 5-(and 6-)carboxyfluorescein diacetate, succinimidyl ester (CFSE, Molecular Probes Inc., Oreg.). After incubation for 30 mins. on ice, neutrophils were washed twice in cold HBSS with Ca^++ and Mg^++ and resuspended in cold Medium 199 (M199, Sigma) to a final concentration of 10^6 /ml. Human umbilical vein endothelial cells were subcultured at confluence into 96-well tissue culture plates (Becton Dickinson Labware, Lincoln Park, N.J.) that were coated with hydrated collagen gel (Vitrogen; Collagen Corporation, Palo Alto, Calif.) and fibronectin. Endothelial cells were stimulated with 10 ng/ml TNF-alpha for 4 hours and washed three times with warm M199. Neutrophils (10^6 /ml) were preincubated with 0.01 mM of peptides or with 1 μM of native FHA in M199 for 5 mins. on ice before they were added in 100 μl aliquots to the endothelial cells. For positive control, neutrophils were pre-incubated with 25 μg/ml anti-CD18 mAb IB4. For negative control, neutrophils were treated with 25 μg/ml mAb W6/32 against HLA class I antigen (Dako, Carpinteria, Calif.). The cells were incubated for 1 hour at 37° C., 5% CO2. To terminate transmigration, the supernatant fluid was aspirated and the wells were filled with warm 1 mM EGTA (Sigma) in HBSS without Ca and Mg. The plates were covered with plate sealers (Dynatech, Alexandria, Va.) and centrifuged in an inverted position at 250 g for 3 mins. at room temperature. To remove residual non-transmigrated neutrophils from the endothelial cells, monolayers were washed twice with 200 μl of warm Hanks solution without Ca and Mg. Fluorescence was quantitated using a fluorescence counter (Millipore Cytofluor™ 2300). The percentage of transmigrated neutrophils was determined by comparing the amount of fluorescence of test wells with that measured in collagen- and fibronectin-coated wells without endothelial cells. […] Percent inhibition of transendothelial migration of neutrophils was calculated by comparing the number of transmigrated cells in wells containing neutrophils treated with peptide to neutrophils treated with M199 alone and arbitrarily set at 100% transendothelial migration (TEM).
The procedures for determining the neutrophil adherence to cultured endothelial cells and the transendothelial migration of neutrophils were identical with those of Example 9. Control values were the same as those shown in Example 9.

leukocytes in CSF = assay: Rabbit meningitis model: leukocyte migration into CSF; type: in vivo
Experimental: as §1
The anti-inflammatory effects of the administered peptides were assessed in the rabbit model for meningitis by the procedures described in Example 10. The animals received 1 ml of 1 uM peptide intravenously. In a slight departure from the protocol described in Example 10, samples of blood were drawn from the left marginal ear vein 30 minutes after the administration of the peptides to determine peripheral leukocyte concentrations.

[1] = 6 hours, peptides 10 μM, FHA 0.1 μM

Substance: filamentous hemagglutinin [native FHA]
- block of binding of 12.1F9 to C3bi (in words) (C3bi): blocked binding almost completely
- Adherence index (C3bi; peptides 50 μg/ml, normalized to a control value of 100): 16 ± 16
- protein influx into CSF and lactate generation (in words) (blood brain barrier; 10 μM peptides, 0.1 μM FHA): significantly protective for protein influx and lactate generation
- Total protein in CSF (blood brain barrier; 6 hours): 1.70 ± 0.33 mg/mL
- Lactate in CSF (blood brain barrier; [1]): 25.0 ± 5.3 mg/100 ml
- Protein in CSF (blood brain barrier; [1]): 1.3 ± 0.3 mg/ml CSF
- Total protein in CSF (blood brain barrier; 7 hours): 1.86 ± 0.76 mg/mL
- % Inhibition of TEM (neutrophils): 82±1%
- % Inhibition of TEM (neutrophils; listed as FHA): 82 ± 1%
- % Inhibition of TEM (neutrophils; listed as Intact FHA): 82±1%
- anti-inflammatory effect (in words) (leukocytes in CSF; 10^-3 μM i.v.): ineffective
- mean leukocyte concentration in CSF (leukocytes in CSF; 7 hours, FHA 0.1 μM (25 μg) i.v.): 2096±450 /μl CSF
- leukocyte density vs control (in words) (leukocytes in CSF; 7 hours, 10^-1 μM): statistically significantly different from control
- reduction of CSF leukocytosis (leukocytes in CSF; peptides 10 μM, FHA 0.1 μM): > 60%

— patent US6015560A, “Antibody recognizing endothelial cell ligand for leukocyte CR3” (priority 1995, dated 2000)
